From patent publication US20090156594A1, “HETEROCYCLIC KINASE MODULATORS” (SGX Pharmaceuticals, Inc., priority 2007, published 2009)

What was measured:
GTL16 cells = experiment: 96-well XTT cell survival assay (GTL16 cells); assay type: cell-based; conditions: Homo sapiens, GTL 16, 72 hours
Experimental: GTL16 cells were maintained in DMEM Medium supplemented with 10% fetal bovine serum (FBS) 2 mM L-Glutamine and 100 units penicillin/100 μg streptomycin, at 37° C. in 5% CO2.
Compounds were Tested in the Following Assays in Duplicate.
96-well XTT assay (GTL16 cells): One day prior to assay the growth media was aspirated off and assay media was added to cells. On the day of the assay, the cells were grown in assay media containing various concentrations of compounds (duplicates) on a 96-well flat bottom plate for 72 hours at 37° C. in 5% CO2. The starting cell number was 5000 cells per well and volume was 120 μl. At the end of the 72-hour incubation, 40 μl of XTT labeling mixture (50:1 solution of sodium 3′-[1-(phenylaminocarbonyl)-3,4-tetrazolium]-bis(4-methoxy-6-nitro) benzene sulfonic acid hydrate and Electron-coupling reagent: PMS (N-methyl dibenzopyrazine methyl sulfate) were added to each well of the plate. After an additional 5 hours of incubation at 37° C., the absorbance reading at 450 nm with a background correction of 650 nm was measured with a spectrophotometer.

c-MET = target: T1, c-MET (Homo sapiens, UniProt P08581); experiment: MET luminescence-based enzyme assay (Kinase-Glo); assay type: biochemical; conditions: MET kinase domain, 10 μM ATP, 60 min at 21° C.
T1 construct: expressing the kinase domain of human Met; 6x Histidine tag (TEV-cleavable) (cleaved yes); made in house; host or cells: Sf9 insect cells
T1 sequence (P08581 1078-1345 limits assumed): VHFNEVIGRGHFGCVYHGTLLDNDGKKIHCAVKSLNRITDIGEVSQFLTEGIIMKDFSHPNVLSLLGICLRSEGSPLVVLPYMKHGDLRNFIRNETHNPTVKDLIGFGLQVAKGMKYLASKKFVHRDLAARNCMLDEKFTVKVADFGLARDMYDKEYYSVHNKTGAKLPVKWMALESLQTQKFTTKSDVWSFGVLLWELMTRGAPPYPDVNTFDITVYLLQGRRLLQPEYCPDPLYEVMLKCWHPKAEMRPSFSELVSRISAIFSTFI
Experimental: Screening data was evaluated using the equation: Z′=1-[3*(σ++σ−)/|μ+−μ−|] […] The subscript designates positive or negative controls. The Z′ score for a robust screening assay should be ≧0.50. The typical threshold=μ+−3*σ+. Any value that falls below the threshold was designated a “hit”.
MET Luminescence-Based Enzyme Assay
MET kinase (see below), Kinase-Glom (Promega Cat#V6712).
(diluted 50 μl into total of 10 ml miliQH2O daily=50 μM ATP working stock); 1% BSA (1 g BSA in 100 ml 0.1M HEPES, pH 7.5, stored at −20° C.), 100 mM MgCl2; 200 μM Staurosporine, 2× Kinase-Glo™ reagent (made fresh or stored at −20° C.).
Standard Assay Setup for 384-well format (20 μl kinase reaction, 40 μl detection reaction): 10 mM MgCl2; 0.3 mg/mil poly Glu-Tyr; 0.1% BSA; 1 μl test compound (in DMSO); 0.4 μg/ml MET kinase; 10 μM ATP; 100 mM HEPES buffer. Positive controls contained DMSO with no test compound. Negative controls contained […] staurosporine. The kinase reactions were initiated at time t=0 by the addition of ATP. Kinase reactions were incubated at 21° C. for 60 min, then 20 μl of Kinase-Glo™ reagent were added to each well to quench the kinase reaction and initiate the luminescence reaction. After a 20 min incubation at 21° C., the luminescence was detected in a plate-reading luminometer.
The cell pellets produced from half of a 12 L Sf9 insect cell culture expressing the kinase domain of human Met were resuspended in a buffer containing 50 mM Tris-HCl pH 7.7 and 250 mM NaCl, in a volume of approximately 40 ml per 1 L of original culture. […] The suspension was stirred for 1 hour at 4° C. Debris was removed by centrifugation for 30 minutes at 39,800×g at 4° C. […] The sample was then poured into a drip column at 4° C. and washed with 10 column volumes of 50 mM Tris-HCl pH 7.8, 500 mM NaCl, 10% Glycerol, […], and 10 mM Methionine. The protein was eluted using a step gradient with two column volumes each of the same buffer containing 50 mM, 200 mM, and 500 mM Imidazole, sequentially. […] The step gradient was run with 15% and then 80% of the B-side (A-side=50 mM Tris-HCl pH 7.8, 500 mM NaCl, 10% Glycerol, 10 mM Imidazole, and 10 mM Methionine; B-side=50 mM Tris-HCl pH 7.8, […], 10% Glycerol, 500 mM Imidazole, and 10 mM Methionine) for 4 column volumes each.

Row | IC50 (c-MET) [µM] | SMILES | IC50 (GTL16 cells) [µM]
1 | < 0.1 | Cc1nn2c(Cc3ccc4ncc(-c5cnn(C)c5)cc4c3)nnc2s1 | ≤ 0.1
2 | < 0.1 | Cc1nn2c(Sc3ccc4ncc(-c5cnn(C)c5)cc4c3)nnc2s1 | ≤ 0.1
3 | 0.1 to 1 | C[C@H](N)c1nn2c(Cc3ccc4ncc(-c5cnn(C)c5)cc4c3)nnc2s1 | –
4 | < 0.1 | Cn1cc(-c2cnc3ccc(Cc4nnc5sc(C6CC6)nn45)cc3c2)cn1 | ≤ 0.1
5 | 0.1 to 1 | Cn1cc(-c2cnc3ccc(Cc4nnc5sc([C@@H]6CCCN6)nn45)cc3c2)cn1 | –
6 | < 0.1 | Cn1cc(-c2cnc3ccc(Cc4nnc5sc(CNCCF)nn45)cc3c2)cn1 | ≤ 0.1
7 | < 0.1 | CCc1nn2c(Cc3ccc4ncc(-c5cnn(C)c5)cc4c3)nnc2s1 | ≤ 0.1
8 | < 0.1 | CNCc1nn2c(Cc3ccc4ncc(-c5cnn(C)c5)cc4c3)nnc2s1 | ≤ 0.1
9 | < 0.1 | COCc1nn2c(Cc3ccc4ncc(-c5cnn(C)c5)cc4c3)nnc2s1 | ≤ 0.1
10 | < 0.1 | CN(C)Cc1nn2c(Cc3ccc4ncc(-c5cnn(C)c5)cc4c3)nnc2s1 | ≤ 0.1
11 | < 0.1 | Cn1cc(-c2cnc3ccc(Cc4nnc5sc(CNC6CC6)nn45)cc3c2)cn1 | ≤ 0.1
12 | < 0.1 | CC(C)NCc1nn2c(Cc3ccc4ncc(-c5cnn(C)c5)cc4c3)nnc2s1 | ≤ 0.1
13 | < 0.1 | Cn1cc(-c2cnc3ccc(Cc4nnc5sc(CNCCO)nn45)cc3c2)cn1 | 0.1 to 1
14 | 1 to 10 | C[C@@H](O)[C@@H](N)c1nn2c(Cc3ccc4ncc(-c5cnn(C)c5)cc4c3)nnc2s1 | –
15 | < 0.1 | C[C@@H](N)c1nn2c(Cc3ccc4ncc(-c5cnn(C)c5)cc4c3)nnc2s1 | 0.1 to 1
16 | 0.1 to 1 | CN[C@H](C)c1nn2c(Cc3ccc4ncc(-c5cnn(C)c5)cc4c3)nnc2s1 | 0.1 to 1
17 | < 0.1 | Cn1cc(-c2cnc3ccc(Cc4nnc5sc(C6CCC6)nn45)cc3c2)cn1 | ≤ 0.1
18 | < 0.1 | CCNCc1nn2c(Cc3ccc4ncc(-c5cnn(C)c5)cc4c3)nnc2s1 | 0.1 to 1

The remaining lines, values behind:

Row | SMILES | IC50 (c-MET) [µM] | IC50 (GTL16 cells) [µM]
19 | c1ccc(-c2nn3c(Cc4ccc5ncccc5c4)nnc3s2)cc1 | < 0.1 | 1 to 10
20 | Cn1cc(-c2nn3c(Cc4cc5cccnc5cc4F)nnc3s2)cn1 | < 0.1 | ≤ 0.1
21 | Cn1cc(-c2nn3c(Cc4c(F)cc5ncccc5c4F)nnc3s2)cn1 | < 0.1 | ≤ 0.1
22 | Fc1cc2ncccc2cc1Cc1nnc2sc(C(F)(F)F)nn12 | 1 to 10 | –
23 | c1ccc(-c2cn3c(Sc4ccc5ncccc5c4)nnc3s2)cc1 | 0.1 to 1 | 1 to 10
24 | Cc1nn2c(Cc3cc4cccnc4cc3F)nnc2s1 | 0.1 to 1 | 0.1 to 1
25 | Fc1cc2ncccc2cc1Cc1nnc2sc(-c3ncc[nH]3)nn12 | 0.1 to 1 | 1 to 10
26 | Cc1nn2c(Sc3ccc4ncccc4c3)nnc2s1 | 0.1 to 1 | –
27 | Cn1cc(-c2cnc3ccc(Cc4nnc5sc(CNCC6CC6)nn45)cc3c2)cn1 | < 0.1 | ≤ 0.1
28 | Cc1nn2c(Cc3ccc4ncc(-c5cnn(C)c5)cc4c3F)nnc2s1 | < 0.1 | ≤ 0.1
29 | Cc1nn2c(Cc3c(F)cc4ncc(Br)cc4c3F)nnc2s1 | 0.1 to 1 | 0.1 to 1
30 | Cn1cc(-c2cnc3ccc(Cc4nnc5sc([C@@H](N)CC6CCCCC6)nn45)cc3c2)cn1 | 0.1 to 1 | –
31 | Cn1cc(-c2cnc3ccc(Cc4nnc5sc(CNCCN6CCOCC6)nn45)cc3c2)cn1 | < 0.1 | 0.1 to 1
32 | Brc1cnc2ccc(Cc3nnc4sc(CN5CCCC5)nn34)cc2c1 | 0.1 to 1 | –
33 | CCc1nn2c(Sc3ccc4ncc(-c5cnn(C)c5)cc4c3)nnc2s1 | < 0.1 | 0.1 to 1
34 | Cn1cc(-c2cnc3ccc(Cc4nnc5sc(C(N)Cc6cncn6C)nn45)cc3c2)cn1 (stereo not shown) | 0.1 to 1 | –
35 | Cn1cc(-c2cnc3ccc(Cc4nnc5sc([C@H](N)CC6CCCCC6)nn45)cc3c2)cn1 | < 0.1 | 0.1 to 1

Row | SMILES | IC50 (c-MET) [µM] | IC50 (GTL16 cells) [µM]
36 | Cn1cc(-c2cnc3ccc(Cc4nnc5sc(CNCC(F)(F)F)nn45)cc3c2)cn1 | < 0.1 | ≤ 0.1
37 | Cn1cc(-c2cnc3ccc(Cc4nnc5sc([C@@H](N)CC6CC6)nn45)cc3c2)cn1 | < 0.1 | –
38 | CS(=O)(=O)c1cccc(-c2cnc3nnc(Cc4ccc5ncccc5c4)n3c2)c1 | > 10 | –
39 | NCc1ccc(-c2cnc3nnc(Cc4ccc5ncccc5c4)n3c2)cc1 | > 10 | –
40 | Cc1nn2c(Cc3c(F)cc4ncc(-c5cnn(C)c5)cc4c3F)nnc2s1 | < 0.1 | ≤ 0.1
41 | COCCc1nn2c(Sc3ccc4ncc(-c5cnn(C)c5)cc4c3)nnc2s1 | < 0.1 | ≤ 0.1
42 | CN(C)Cc1nn2c(Cc3c(F)cc4ncc(Br)cc4c3F)nnc2s1 | 1 to 10 | –
43 | OCc1nn2c(Cc3ccc4ncc(Br)cc4c3)nnc2s1 | > 10 | –
44 | Cn1cc(-c2cnc3ccc(Cc4nnc5nccnn45)cc3c2)cn1 [3-(1-Methyl-1H-pyrazol-4-yl)-6-[1,2,4]triazolo[4,3-b][1,2,4]triazin-3-ylmethyl-quinoline] | < 0.1 | ≤ 0.1
45 | c1ccc(-c2cn3c(Cc4ccc5ncccc5c4)nnc3s2)cc1 [6-(6-Phenyl-thiazolo[2,3-c][1,2,4]triazol-3-ylmethyl)-quinoline] | 1 to 10 | –
46 | Cn1cc(-c2nn3c(Cc4ccc5ncccc5c4)cnc3s2)cn1 [6-[2-(1-methyl-1H-pyrazol-4-yl)-imidazo[2,1-b][1,3,4]thiadiazol-5-ylmethyl]-quinoline] | < 0.1 | 0.1 to 1
47 | Cn1cc(-c2nn3c(Cc4ccc5ncccc5c4)nnc3s2)cn1 [6-[6-(1-Methyl-1H-pyrazol-4-yl)-[1,2,4]triazolo[3,4-b][1,3,4]thiadiazol-3-ylmethyl]-quinoline] | – | 0.1 to 1
48 | Cn1cc(-c2nn3c(Sc4ccc5ncccc5c4)nnc3s2)cn1 [6-[6-(1-Methyl-1H-pyrazol-4-yl)-[1,2,4]triazolo[3,4-b][1,3,4]thiadiazol-3-ylsulfanyl]-quinoline] | < 0.1 | 0.1 to 1
49 | c1cnc2ccc(Cc3nnc4sc(NC5CC5)nn34)cc2c1 [cyclopropyl-(3-quinolin-6-ylmethyl-[1,2,4]triazolo[3,4-b][1,3,4]thiadiazol-6-yl)-amine] | < 0.1 | ≤ 0.1
50 | Cn1cc(-c2cnc3ccc(Cc4nnc5sc(-c6cccnc6)nn45)cc3c2)cn1 [drawing 184] | – | ≤ 0.1
51 | Cn1cc(-c2cnc3ccc(Cc4nnc5sc(-c6cccnc6)nn45)cc3c2)cn1 [drawing 217] | < 0.1 | –
